The values that follow come from US5164189A, “Single layer transdermal drug administration system” (priority 1991, dated 1992).

The nature of one series: in vivo. The following applies: rhesus monkey, iv, 0.05 mg/kg.
The conditions of series [1]: cited from earlier work.
Series [2] is described as follows: Intravenous albuterol pharmacokinetics in Rhesus monkeys. As to conditions: 0.05 mg/kg.
Protocol: (§1) This solution was injected into the saphenous vein of each monkey at a dose of 1 mL/Kg of bodyweight.
(§2) The serum from each blood sample was separated from other blood components via centrifugation, and then stored at -20° C. until the analysis described in Example 1(f)(1) was performed.
(§3) In separate clean test tubes, 1.5 mL of serum standard (Example 1(d)), serum sample (Examples 1(d) and (e)) and blank (Example 1(d)) was separately buffered with 150 microliters of a 0.42 M phosphate buffer, pH 7.2.
(§4) Each serum sample was then extracted with 4.5 mL of chloroform containing 0.1 M Di (2-ethylhexyl) phosphate (DEHP). The chloroform layer was separated into clean screw cap test tubes and mixed with 375 microliters of a 0.5 M HCl solution.
(§5) The aqueous extracts were then separated by centrifugation and analyzed by the HPLC-Fluorescence procedure described directly below.
(§6) The HPLC system consisted of a Waters Model 590 (Millipore Corporation, Bedford, Mass.) solvent delivery system equipped with a Waters Model 710 B Wisp auto injector, a Zorbax CN column (Dupont, 6 micron particles, 25 cm×4.6 mm internal diameter), Kratos (Kratos Analytical Instruments)Model 970 fluorescence detector (excitation 225 nm and emission 280 nm), and the Ingrad Data Analysis system (G. D. Searle & Co.). […] The mobile phase was pumped at a flow rate of 1.0 mL/minute. The injection volume was 100 microliters. The sensitivity of the method was 2.0 ng/mL.
(§7) The coefficient of variation associated with low (10 ng/mL) and high (80 ng/mL) quality control standard solutions were 4.5 and 3.4 percent, respectively.

What is called AUC is concentration integrated over time. What is called Vd is a proportionality between amount in the body and measured concentration, not a real space. A high value points to extensive tissue distribution.

Bounds are passed on as bounds.

Protocol for in vivo: as §1, §2, §3, §4, §5, §6, §7

Regarding `CC(C)(C)NCC(O)c1ccc(O)c(CO)c1` (centres unmarked) [albuterol], the AUC in “in vivo” was determined as 84.2 ng·h/mL. Moreover, the “Apparent volume of distribution in humans” value in series [1] (human) is 2.2 L/kg. Besides, the Oral bioavailability in series [1] (oral, extensive first pass metabolism, 'as low as') is at least 10%. The “Apparent volume of distribution” value in series [2] (50 mcg/Kg IV, Rhesus monkeys, n=4, mean) came out at 1.9359 L/kg. Besides, the Vd in series [2] (rhesus monkey, serum, iv) came out at 1.94 ± 0.0372 L/kg.
